Activity calls are given as the source filed them.
Assays:
[1] = tested on: SOX2 promoter DNA; test: Binding affinity to SOX2 promoter 5'-CTTTGTT-3' DNA in human PC3 cells assessed as reduction in SOX2 mRNA expression incubated for 48 hrs by qRT-PCR analysis; type: cell-based; conditions: PC-3
[2] = tested on: SOX2 promoter DNA; test: Binding affinity to SOX2 promoter 5'-CTTTGTT-3' DNA (unknown origin) transfected in human SW620 cells at 2 to 10 uM incubated for 24 hrs by 6xO/s-Luc reporter gene based Steady-Glo luciferase assay; type: cell-based; conditions: SW-620
[3] = tested on: SOX2 promoter DNA; test: Binding affinity to SOX2 promoter 5'-CTTTGTT-3' DNA in human SW620 cells assessed as reduction in SOX2 protein level incubated for 48 hrs by immunostaining based FACS analysis; type: cell-based; conditions: SW-620
[4] = tested on: SOX2 promoter DNA; test: Binding affinity to SOX2 promoter 5'-CTTTGTT-3' DNA in mouse GL261 cells assessed as reduction in SOX2 mRNA expression incubated for 48 hrs by qRT-PCR analysis; type: cell-based
[5] = tested on: SOX2 promoter DNA; test: Binding affinity to SOX2 promoter 5'-CTTTGTT-3' DNA in human SW620 cells assessed as down regulation of DOCK1 mRNA expression at 2 uM incubated for 48 hrs by qRT-PCR analysis; type: cell-based; conditions: SW-620
[6] = tested on: MKN-45; test: Antiproliferative activity against human MKN45 cells assessed as inhibition of cell proliferation incubated for 48 hrs by [3H]thymidine incorporation based scintillation counting method; type: functional
[7] = tested on: MCF7; test: Antiproliferative activity against human MCF7 cells assessed as inhibition of cell proliferation incubated for 48 hrs by [3H]thymidine incorporation based scintillation counting method; type: functional
[8] = tested on: SW-620; test: Up regulation of GADD45A mRNA expression in human SW620 cells incubated for 48 hrs by qRT-PCR analysis; type: functional, cell-based
[9] = tested on: SOX2 promoter DNA; test: Binding affinity to SOX2 promoter 5'-CTTTGTT-3' DNA in human MCF7 cells assessed as reduction in SOX2 mRNA expression incubated for 48 hrs by qRT-PCR analysis; type: cell-based
[10] = tested on: SOX2 promoter DNA; test: Binding affinity to SOX2 promoter 5'-CTTTGTT-3' DNA in human U2OS cells assessed as reduction in SOX2 mRNA expression incubated for 48 hrs by qRT-PCR analysis; type: cell-based
[11] = tested on: SW-620; test: Up regulation of p27kip1 mRNA expression in human SW620 cells incubated for 48 hrs by qRT-PCR analysis; type: functional, cell-based
[12] = tested on: U2OS; test: Antiproliferative activity against human U2OS cells assessed as inhibition of cell proliferation incubated for 48 hrs by [3H]thymidine incorporation based scintillation counting method; type: functional
[13] = tested on: SW-620; test: Cell cycle arrest in human SW620 cells assessed as increase in accumulation at sub-G1/G1 phase at 2 uM to 5 uM after 48 hrs by propidium iodide staining based flow cytometry analysis; type: functional
[14] = tested on: SOX2 promoter DNA; test: Binding affinity to SOX2 promoter 5'-CTTTGTT-3' DNA in human SW620 cells assessed as up regulation of CDH1 mRNA expression at 2 uM incubated for 48 hrs by qRT-PCR analysis; type: cell-based; conditions: SW-620
[15] = tested on: MKN-45; test: Cell cycle arrest in human MKN45 cells assessed as reduction in accumulation at G2/M phase at 2 uM to 5 uM after 48 hrs by propidium iodide staining based flow cytometry analysis; type: functional
[16] = tested on: SW-620; test: Up regulation of p21cip1 mRNA expression in human SW620 cells incubated for 48 hrs by qRT-PCR analysis; type: functional, cell-based
[17] = tested on: SW-620; test: Antiproliferative activity against human SW620 cells assessed as inhibition of cell proliferation incubated for 48 hrs by [3H]thymidine incorporation based scintillation counting method; type: functional

CC(=O)Nc1cc(C(=O)Nc2cc(C(=O)Nc3cc(C(=O)NCCC(=O)Nc4cn(C)c(C(=O)Nc5cc(C(=O)NCCCC(=O)Nc6cc(C(=O)Nc7cc(C(=O)NCCC(=O)Nc8cc(C(=O)Nc9cc(C(=O)Nc%10cn(C)c(C(=O)NCCCN(C)C)n%10)n(C)c9)n(C)c8)n(C)c7)n(C)c6)n(C)c5)n4)n(C)c3)n(C)c2)n(C)c1
active: Activity [1] | Activity [2] | Activity [3] Dose-dependent effect | Activity [4] | Activity [5] | inhibition [6] Dose-dependent effect | inhibition [7] Dose-dependent effect | Activity [8] | Activity [9] | Activity [10] | Activity [11] | inhibition [12] Dose-dependent effect | Activity [13] | Activity [14] | Activity [15] | Activity [16] | inhibition [17] Dose-dependent effect

Reference: ChEMBL document CHEMBL4616595, “Targeted suppression of metastasis regulatory transcription factor SOX2 in various cancer cell lines using a sequence-specific designer pyrrole-imidazole polyamide” (Bioorg Med Chem, 2020)
